Experiments:
guinea pig left atrium = test: isolated guinea pig left atrium, isometric contraction in organ bath; conditions: Cavia porcellus, read-out: Contractile foece of guinea pig left atrium Increase rate (%); for activation at 30 µg/mL: Dosage 3x10^-5 g/ml; for activation at 10 µg/mL: Dosage 10^-5 g/ml
Description: 2) Method of using isolated guinea pig left atrium
Male guinea pigs weighing 200 - 300 g were killed by hitting their back of the heat and their left atria were immediately isolated. The left atrium was fixed to the bottom of an organ bath filled with 30 ml of Klebs-Henseleit's solution maintained at 35 °C. A mixed gas comprising 95 % of 02 and 5 % of C02 was passed through the Klebs-Henseleit's solution in the organ bath. The auricle of the left atrium was connected to a transducer with a thread to measure the isometric contraction. The atrium was applied with 0.5 g of resting tension. The atrium was electrically driven by square wave of 1 millisecond duration at a voltage of the order of 1.5 times of the threshold voltage and at a rate of twice per second by means of two platinum electrodes. The preparation was stabilized for 30 minutes, then the compound dissolved in solvent was added to the organ bath, and the reaction was determined.

dog papillary muscle = test: cross-circulated preparation of isolated dog papillary muscle; conditions: Canis lupus familiaris, read-out: Contractile force of dog papillary muscle Increasing rate (%); for activation at 0.03 mg: Dosage 30 µg i.a.; for activation at 0.1 mg: Dosage 100 µg i.a.
Description: 1) Method of using cross-circulated preparation of isolated dog papillary muscle
Cross-circulated preparations of isolated dog papillary muscle were prepared according to the method of Endoh & Hashimoto, American J. Physiol., vol. 218, p.1459-1463, 1970, United States. The compound dissolved in solvent was injected to the artery close to the preparation, and the action of the compound on the contractile force of papillary muscle was determined.

anesthetized dog = test: anesthetized dog, cardiac contractility and cardiac output; type: in vivo; conditions: for Co Increasing rate (%): blood flow rate in the aorta as index of cardiac output; for Cont Increasing rate (%): contractile force of the right cardiac ventricle muscle
Description: 3) Method of using anesthetized dog
Male or female mongrel dogs weighing 8 - 15 kg were used. The dogs were anesthetized with sodium pentobarbital at the dose of 30 mg/kg (intravenous injection) and then applied with artificial respiration. They were thoracotomised at the intercostal portion between forth and fifith costa, and the fifth costa was excised. Then the pericardium was cut to expose the heart. A probe of an electromagnetic flow meter was attached to the aorta to measure the blood flow rate in the aorta, which was used as an approximate index of the cardiac output (CO). A polyethylene cannula was inserted into the left cardiac ventricle to measure the intraventricular pressure, thereby the variation rate of the intraventricular pressure of the left cardiac ventricle (dp/dt) was electrically determined. A strain gauge was attached to the wall of the right cardiac ventricle to measure the contractile force of the right cardiac ventricle muscle (Cont). The systemic blood pressure was measured at the left femoral artery. The heart rate was measured by means- of a cardiotachometer. The compound dissolved in solvent was applied intravenously from the left femoral vein.

COc1cc(C2=NNC(=O)CC2)ccc1OCC(=O)N1CCN(Cc2ccc(OC)c(OC)c2OC)CC1 [Compound of Example 1]
activation at 30 µg/mL (guinea pig left atrium): 44.8% | activation at 10 µg/mL (guinea pig left atrium): 35.5% | activation at 0.03 mg (dog papillary muscle): 10% | activation at 0.1 mg (dog papillary muscle): 20.1% | dp/dtmax Increasing rate (%) (anesthetized dog; Dosage 30 µg/kg i.v.): 12.9% | Co Increasing rate (%) (anesthetized dog; Dosage 30 µg/kg i.v.): 5.5% | Cont Increasing rate (%) (anesthetized dog; Dosage 30 µg/kg i.v.): 7.9% | dp/dtmax Increasing rate (%) (anesthetized dog; Dosage 100 µg/kg i.v.): 27.1% | Co Increasing rate (%) (anesthetized dog; Dosage 100 µg/kg i.v.): 13.3% | Cont Increasing rate (%) (anesthetized dog; Dosage 100 µg/kg i.v.): 21.5%

COc1ccc(N2CCN(C(=O)C(C)Oc3ccc(C4=NNC(=O)CC4)cc3OC)CC2)cc1 (stereo not shown) [Compound of Example 4]
activation at 30 µg/mL (guinea pig left atrium): 35.9% | activation at 10 µg/mL (guinea pig left atrium): 23.8% | activation at 0.03 mg (dog papillary muscle): 7.5% | activation at 0.1 mg (dog papillary muscle): 24.8% | dp/dtmax Increasing rate (%) (anesthetized dog; Dosage 30 µg/kg i.v.): 9.9% | Co Increasing rate (%) (anesthetized dog; Dosage 30 µg/kg i.v.): 8.7% | Cont Increasing rate (%) (anesthetized dog; Dosage 30 µg/kg i.v.): 3.6% | dp/dtmax Increasing rate (%) (anesthetized dog; Dosage 100 µg/kg i.v.): 19.2% | Co Increasing rate (%) (anesthetized dog; Dosage 100 µg/kg i.v.): 19.6% | Cont Increasing rate (%) (anesthetized dog; Dosage 100 µg/kg i.v.): 10.0%

COc1ccc(CN2CCN(C(=O)COc3ccc(C4=NNC(=O)CC4)cc3)CC2)cc1 [Compound of Example 3]
activation at 30 µg/mL (guinea pig left atrium): 28% | activation at 10 µg/mL (guinea pig left atrium): 32% | activation at 0.03 mg (dog papillary muscle): 13.2% | activation at 0.1 mg (dog papillary muscle): 17% | dp/dtmax Increasing rate (%) (anesthetized dog; Dosage 30 µg/kg i.v.): 18.0% | Co Increasing rate (%) (anesthetized dog; Dosage 30 µg/kg i.v.): 17.4% | Cont Increasing rate (%) (anesthetized dog; Dosage 30 µg/kg i.v.): 12.2% | dp/dtmax Increasing rate (%) (anesthetized dog; Dosage 100 µg/kg i.v.): 49.8% | Co Increasing rate (%) (anesthetized dog; Dosage 100 µg/kg i.v.): 28.9% | Cont Increasing rate (%) (anesthetized dog; Dosage 100 µg/kg i.v.): 29.1%

COc1ccc(CN2CCN(C(=O)COc3ccc(C4=NNC(=O)CC4)cc3)CC2)c(OC)c1OC [Compound of Example 2]
activation at 30 µg/mL (guinea pig left atrium): 22.6% | activation at 10 µg/mL (guinea pig left atrium): 6.4% | activation at 0.03 mg (dog papillary muscle): 11.4% | activation at 0.1 mg (dog papillary muscle): 12.5% | dp/dtmax Increasing rate (%) (anesthetized dog; Dosage 30 µg/kg i.v.): 12.2% | Co Increasing rate (%) (anesthetized dog; Dosage 30 µg/kg i.v.): 4.8% | Cont Increasing rate (%) (anesthetized dog; Dosage 30 µg/kg i.v.): 10.1% | dp/dtmax Increasing rate (%) (anesthetized dog; Dosage 100 µg/kg i.v.): 34.3% | Co Increasing rate (%) (anesthetized dog; Dosage 100 µg/kg i.v.): 16.3% | Cont Increasing rate (%) (anesthetized dog; Dosage 100 µg/kg i.v.): 22.8%

— patent publication EP0252422A2, “Pyridazinone derivatives and salts thereof” (MITSUBISHI KASEI CORPORATION, priority 1986, dated 1988)
